pEC50, pIC50: −log10 of the molar value.
Key:
[1] = tested on: picornaviruses (CVB1, HRV-A2, HRV-A23, EV-68); test: Anti-picornavirus cytopathic effect (CPE) reduction assay on HeLa H1 cells; assay type: cell-based; settings: Enterovirus B, HeLa H1, 48 h, HeLa H1 cells, 48 h, category from averaging the EC50 values from four picornaviruses (CVB1, HRV-A2, HRV-A23, EV68); read-out: EC50 values of the compounds determined in the anti-picornavirus assay
Procedure: The antiviral activity of selected compounds was tested using a cytopathic effect (CPE) reduction assay on HeLa H1 cells (ATCC CRL-1958). Briefly, cells were seeded in 96-well dishes (2×10^4 cells/well) in DMEM medium (Life technologies) supplemented with 10% FBS and PenStrep solution (100 U/mL Penicillin and 100 μg/mL streptomycin) and incubated at 37° C., 5% CO2 ovemight. The next day, cells were pre-treated with serial dilutions of the compound in DMEM medium supplemented with 2% FBS and PenStrep for 2 h at 37° C., 5% CO2. Next, cells were infected with virus (CVB1, HRV-A2, HRV-A23, EV-68) at an multiplicity of infection (MOI) which results in a complete virus-induced CPE within 2 days in control wells (infected and vehicle-treated). After 48 h, supematants were aspirated and 50 μl/well of CellTiterBlue reagent (Promega) diluted 1:5 in DMEM+2% FBS, was added to the cells. Plates were returned to the incubator and allowed to develop for 1.5 h. After that, plates were equilibrated to RT and subsequently, fluorescence was recorded (Excitation wavelength: 560 nm; emission wavelength: 590 nm) using a SpectraMax M5 multimode plate reader. Viability of cells was calculated according to the formula: V=(RFUCpd−RFUVeh/(RFUM−RFUVeh), where RFUCpd refers to infected and compound-treated cells, RFUVeh to infected and vehicle-treated cells and RFUM to uninfected and vehicle treated cells. Half-maximal effective concentrations (EC50) were calculated by non-linear regression analysis using the drc package in R (R Development. Core Team, 2005). EC50 categories as presented in Table 2 were calculated by averaging the EC50 values from four picornaviruses (CVB1, HRV-A2, HRV-A23, EV68).

[2] = target: T1, PLA2G16 (Homo sapiens, UniProt P53816); test: Enzyme activity assay for PLA2G16 (Red/Green BODIPY PC-A2 fluorescence); assay type: biochemical; settings: His-tagged PLA2G16, 4 min pre-incubation, 2 nM to 50 μM; read-out: IC50 values of the compounds determined in the enzyme activity assay for PLA2G16
T1 construct: Hexa-His (N); made in house; host or cells: E. coli BL21(DE3)
T1 sequence (P53816 1-162): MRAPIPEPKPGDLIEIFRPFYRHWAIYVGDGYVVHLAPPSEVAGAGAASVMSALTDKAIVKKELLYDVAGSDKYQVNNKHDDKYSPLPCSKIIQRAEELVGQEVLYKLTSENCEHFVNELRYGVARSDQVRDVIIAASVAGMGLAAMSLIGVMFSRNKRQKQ
Excerpt: A cDNA for PLA2G16(NM_007069) was custom-synthesized by Genscript (Piscataway, USA) and inserted into a pET-based bacterial expression vector [Moffatt, B. A. and Studier, F. W. (1986) J. Mol. Biol. 189, 113-130; Rosenberg, A. H., Lade, B. N., Chui, D., Lin, S., Dunn, J. J., and Studier, F. W. (1987) Gene 56, 125-135], enabling the expression of N-terminally Hexa-His-tagged PLA2G16. E. coli BL21(DE3) (Agilent) were transformed with pET-His-PLA2G16according to the manufacturer's instructions and plated on Carbenicillin-containing agar plates (final concentration: 100 μg/mL). A single clone was in occulated in 100 mL LB medium supplemented with 100 μg/mL Carbenicillin and the in occulated culture was grown at 37° C. overnight in a rotary shaker. On the next day, the bacterial culture was diluted in LB medium supplemented with 100 μg/mL Carbenicillin (30 mL overnight culture in 800 mL total culture volume). Bacteria were grown at 37° C. until the OD600 reached 0.6. Gene expression was induced by addition of 1 mM isopropyl-β-D-thiogalactopyranosid (IPTG) for 2 h at 18° C. Subsequently, bacteria were harvested by centrifugation (15 min; 10,000×g; 4° C.) and frozen at −80° C. The bacterial pellet was resuspended in Buffer A (50 mM Tris/HCl pH 7.5, 500 mM NaCl, 5% glycerol, 5 mM β-Mercaptoethanol and 1 mM PMSF) and lysed by addition of 1 mg/mL lysozyme (Sigma Aldrich) and 100 μg/mL DNasel-(Roche). The sample was incubated at 30° C. for 30 min to allow lysis to occur. Then, the lysate was cleared by centrifugation (15,000×g, 15 min, 4° C.) and incubated with 1.5 mL Ni-NTA agarose suspension (Qiagen) for 60 min at 4° C. The Ni-NTA agarose was washed with 10 mL Buffer A. Bound protein was eluted by applying a manual gradient of Buffer A supplemented with increasing concentrations of imidazole (Sigma Aldrich; 25/50/75/100/250 mM). Purified fractions were analyzed by SDS-PAGE followed by Coomassie staining to assess the purity.
Activity of the protein was assessed as follows: Red/Green BODIPY® PC-A2 (Invitrogen, 1 mM in DMSO) was mixed with equal volumes of 1,2-Dioleoyl-sn-glycero-3-phosphocholine (DOPC; Sigma Aldrich, 10 mM in Ethanol) and 1,2-Dioleoyl-sn-glycero-3-phospho-rac-(1-glycerol) (DOPG; Sigma Aldrich, 10 mM in Ethanol) and 0.5 volumes of Cholesterol (CHOL; Sigma Aldrich, 10 mM in Ethanol) and vortexed for 5 s. The mixture (Red/Green BODIPY® PC-A2/DOPC/DOPG/CHOL) was diluted 1:91.4 in activity assay buffer (50 mM Tris/HCl pH 8.5, 100 mM NaCl) using a small-orifice pipette tip under constant vortexing. In the following, this preparation will be referred to as the “substrate solution”.
In order to evaluate their inhibitory potential, compounds were dissolved at 10 mM concentration in DMSO and directly spotted into assay plates (Corning, Cat. No. 3576) using acoustic liquid transfer (Labcyte Echo 525). Each compound was spotted at increasing concentrations, ranging from 2 nM to 50 μM (concentration in the final assay volume). 50 μl of PLA2G16 enzyme solution (diluted in activity buffer, supplemented with 5 mM L-Glutathione; Sigma Aldrich) was pre-incubated with compounds for 4 min., followed by addition of 50 μl of substrate solution. Fluorescence was recorded immediately after substrate addition for a total time of 10 min. using a SpectraMax M5 multimode reader (Excitation wavelength: 480 nm, emission wavelength: 530 nm). The relative increase of fluorescence over time is referred to as the enzyme activity. Half-maximal inhibitory concentrations (IC50) were derived by non-linear regression analysis using the drc package in R (R Development. Core Team, 2005).

| Compound | pEC50 [1] | pIC50 [2] |
| --- | --- | --- |
| CC(OC1CCCCC1)C(=O)C(=O)NCC1CCCC1 (stereo not drawn) [FP 127, 3-(Cyclohexyloxy)-N-(cyclopentylmethyl)-2-oxobutanamide] | > 6.00 | > 6.00 |
| NC(=O)c1cccc(CN2C(=O)CCC2C(=O)C(=O)NCC2CC2)c1 (stereo not drawn) [FP 250, 3-[(2-{[(Cyclopropylmethyl)carbamoyl]carbonyl}-5-oxopyrrolidin-1-yl)methyl]benzamide] | 5.00 to 6.00 | > 6.00 |
| O=C(NC1CC1)C(=O)[C@H]1CCC(=O)N1Cc1ccc(Cl)cc1 [FP 284, 2-[(2R)-1-[(4-Chlorophenyl)methyl]-5-oxopyrrolidin-2-yl]-N-cyclopropyl-2-oxoacetamide] | > 6.00 | > 6.00 |
| N#CC1(CNC(=O)C(=O)[C@H]2CCC(=O)N2Cc2ccccc2)CC1 [FP 290, 2-[(2R)-1-Benzyl-5-oxopyrrolidin-2-yl]-N-[(1-cyanocyclopropyl)methyl]-2-oxoacetamide] | 5.00 to 6.00 | > 6.00 |
| CC[C@@H](C)NC(=O)C(=O)C(C)N(C=O)c1ccccc1OC (stereo partly drawn) [FP 102, N-[(2R)-Butan-2-yl]-3-[N-(2-methoxyphenyl)formamido]-2-oxobutanamide] | 5.00 to 6.00 | > 6.00 |
| O=CN(Cc1ccccc1)C(C(=O)C(=O)NCC1CC1)C1CCOCC1 (stereo not drawn) [FP 71, 3-(N-Benzylformamido)-N-(cyclopropylmethyl)-3-(oxan-4-yl)-2-oxopropanamide] | 5.00 to 6.00 | > 6.00 |
| COc1cccc(Cl)c1C(=O)NC(C)C(=O)C(=O)NCC1CC1 (stereo not drawn) [FP 212, 3-[(2-Chloro-6-methoxyphenyl)formamido]-N-(cyclopropylmethyl)-2-oxobutanamide] | 5.00 to 6.00 | > 6.00 |
| O=C(N[C@H]1CCCC[C@H]1O)C(=O)[C@H]1CCC(=O)N1Cc1ccccc1 (single isomer, unassigned) [FP 273] | 5.00 to 6.00 | 5.00 to 6.00 |
| CC(OC1CCCCC1)C(=O)C(=O)NCC1CCC1 (stereo not drawn) [FP 126, N-(Cyclobutylmethyl)-3-(cyclohexyloxy)-2-oxobutanamide] | > 6.00 | > 6.00 |
| CC(C(=O)C(=O)NCC1CC1)N(C)S(=O)(=O)c1ccccc1 (stereo not drawn) [FP 221, N-(Cyclopropylmethyl)-3-(N-methylbenzenesulfonamido)-2-oxobutanamide] | < 5.00 | > 6.00 |
| COc1ccccc1N(C=O)C(C)C(=O)C(=O)NCc1cc(F)cc(Cl)c1 (stereo not drawn) [FP 94, N-[(3-Chloro-5-fluorophenyl)methyl]-3-[N-(2-methoxyphenyl)formamido]-2-oxobutanamide] | > 6.00 | > 6.00 |
| O=C(NC1CC1)C(=O)C1CCC(=O)N1CCc1ccccc1 (stereo not drawn) [FP 251, N-Cyclopropyl-2-oxo-2-[5-oxo-1-(2-phenylethyl)pyrrolidin-2-yl]acetamide] | 5.00 to 6.00 | > 6.00 |
| Cc1ccccc1C(=O)N[C@H](C)C(=O)C(=O)NCC1CC1 (single isomer, unassigned) [FP 158] | 5.00 to 6.00 | > 6.00 |
| CC(C(=O)C(=O)NCC1CCCCC1)N(C)C(=O)C1CC1 (stereo not drawn) [FP 146, N-(Cyclohexylmethyl)-3-(1-cyclopropyl-N-methylformamido)-2-oxobutanamide] | 5.00 to 6.00 | > 6.00 |
| O=C(NCCNC(=O)C1CCC1)C(=O)[C@H]1CCC(=O)N1Cc1ccccc1 [FP 332, 2-[(2R)-1-Benzyl-5-oxopyrrolidin-2-yl]-N-[2-(cyclobutylformamido)ethyl]-2-oxoacetamide] | 5.00 to 6.00 | > 6.00 |
| CC(OCC(C)(C)C)C(=O)C(=O)NCC1CC1 (stereo not drawn) [FP 122, N-(Cyclopropylmethyl)-3-(2,2-dimethylpropoxy)-2-oxobutanamide] | 5.00 to 6.00 | 5.00 to 6.00 |
| Cc1nc(C)n(CCCNC(=O)C(=O)C2CCC(=O)N2Cc2ccccc2)n1 (stereo not drawn) [FP 231, 2-(1-Benzyl-5-oxopyrrolidin-2-yl)-N-[3-(3,5-dimethyl-1H-1,2,4-triazol-1-yl)propyl]-2-oxoacetamide] | < 5.00 | > 6.00 |
| CC(C)S(=O)(=O)N1CCC(NC(=O)C(=O)[C@H]2CCC(=O)N2Cc2ccccc2)CC1 [FP 323, 2-[(2R)-1-Benzyl-5-oxopyrrolidin-2-yl]-2-oxo-N-[1-(propane-2-sulfonyl)piperidin-4-yl]acetamide] | > 6.00 | > 6.00 |
| N#CC1CC(NC(=O)C(=O)[C@H]2CCC(=O)N2Cc2ccccc2)C1 (stereo partly drawn) [FP 303, 2-[(2R)-1-Benzyl-5-oxopyrrolidin-2-yl]-N-(3-cyanocyclobutyl)-2-oxoacetamide] | 5.00 to 6.00 | > 6.00 |
| CC(C)NC(=O)C(=O)C(C)OC1CCCCC1 (stereo not drawn) [FP 125, 3-(Cyclohexyloxy)-2-oxo-N-(propan-2-yl)butanamide] | 5.00 to 6.00 | 5.00 to 6.00 |
| CNC(=O)C(=O)[C@H]1CCC(=O)N1Cc1ccccc1 [FP 281, 2-[(2R)-1-Benzyl-5-oxopyrrolidin-2-yl]-N-methyl-2-oxoacetamide] | 5.00 to 6.00 | > 6.00 |
| CC[C@H](C)NC(=O)C(=O)C(C)N(C=O)c1ccccc1OC (stereo partly drawn) [FP 106, N-[(2S)-Butan-2-yl]-3-[N-(2-methoxyphenyl)formamido]-2-oxobutanamide] | 5.00 to 6.00 | > 6.00 |
| CC(C)NC(=O)C(=O)C(C)N(C=O)Cc1ccccc1 (stereo not drawn) [FP 57, 3-(N-Benzylformamido)-2-oxo-N-(propan-2-yl)butanamide] | 5.00 to 6.00 | > 6.00 |
| CC(OCC1CCOCC1)C(=O)C(=O)NCC1CCC1 (stereo not drawn) [FP 131, N-(Cyclobutylmethyl)-3-[(oxan-4-yl)methoxy]-2-oxobutanamide] | > 6.00 | > 6.00 |
